Active and inactive are the calls of the source. No cut-off for these calls is given here.
Key:
[1] = system: Echinococcus granulosus; experiment: Parasiticidal activity against Echinococcus granulosus protoscolices […] by eosin exclusion test; assay type: functional; details: 1152 h, time 48 day
[2] = system: Echinococcus granulosus; experiment: Parasiticidal activity against Echinococcus granulosus protoscolices assessed as death rate at 5 uM incubated for 4 days by eosin exclusion test; assay type: functional; details: time 4 day
[3] = system: Echinococcus granulosus; experiment: Parasiticidal activity against Echinococcus granulosus protoscolices assessed as lethal effect incubated for 4 days by eosin exclusion test; assay type: functional, organism-based; details: dose 0.5-5 µM, time 4.0 day
[4] = system: Echinococcus granulosus; experiment: Parasiticidal activity against Echinococcus granulosus protoscolices assessed as death rate at 0.5 uM incubated for 4 days by eosin exclusion test; assay type: functional; details: time 4 day
[5] = system: Echinococcus granulosus; experiment: Parasiticidal activity against Echinococcus granulosus protoscolices assessed as increase in death rate at 5 uM incubated for 4 days by darker staining-based light microscopy; assay type: functional, organism-based; details: time 4.0 day
[6] = system: Echinococcus granulosus; experiment: Parasiticidal activity against Echinococcus granulosus protoscolices assessed as appearance of body shrank at 5 uM incubated for 4 days by scanning electron microscopy analysis; assay type: functional, organism-based; details: time 4.0 day
[7] = system: Echinococcus granulosus; experiment: Parasiticidal activity against Echinococcus granulosus protoscolices assessed as appearance of rostellum hooks fall off at 5 uM incubated for 4 days by scanning electron microscopy analysis; assay type: functional, organism-based; details: time 4.0 day
[8] = system: Echinococcus granulosus; experiment: Parasiticidal activity against Echinococcus granulosus protoscolices assessed as appearance of blurred marginal structure at 5 uM incubated for 4 days by scanning electron microscopy analysis; assay type: functional, organism-based; details: time 4.0 day
[9] = system: Echinococcus granulosus; experiment: Parasiticidal activity against Echinococcus granulosus protoscolices assessed as partial vacuolar change at 5 uM incubated for 4 days by scanning electron microscopy analysis; assay type: functional, organism-based; details: time 4.0 day
[10] = system: Echinococcus granulosus; experiment: Parasiticidal activity against Echinococcus granulosus protoscolices assessed as degeneration of outer skin at 5 uM incubated for 4 days by scanning electron microscopy; assay type: functional, organism-based; details: time 4.0 day
[11] = system: Echinococcus granulosus; experiment: Parasiticidal activity against Echinococcus granulosus protoscolices assessed as loss of hooks at 5 uM incubated for 4 days by scanning electron microscopy; assay type: functional, organism-based; details: time 4.0 day
[12] = system: Echinococcus granulosus; experiment: Parasiticidal activity against Echinococcus granulosus protoscolices assessed as loss of suckers at 5 uM incubated for 4 days by scanning electron microscopy; assay type: functional; details: time 4 day
[13] = system: Echinococcus granulosus; experiment: Parasiticidal activity against Echinococcus granulosus assessed as collapse of germinal layers at 100 uM incubated for 4 days by scanning electron microscopy; assay type: functional, organism-based; details: time 4.0 day
[14] = system: Echinococcus granulosus; experiment: Parasiticidal activity against Echinococcus granulosus cyst assessed as seperation from cuticle at 100 uM incubated for 4 days by scanning electron microscopy; assay type: functional, organism-based; details: time 4.0 day
[15] = system: Echinococcus granulosus; experiment: Parasiticidal activity against Echinococcus granulosus cyst assessed as formation of dense aggregates at 100 uM incubated for 4 days by scanning electron microscopy; assay type: functional, organism-based; details: time 4.0 day
[16] = Cmax in Wistar rat at 5 mg/kg, iv by HPLC analysis; assay type: ADME, organism-based; parameters: dose 5 mg/kg, route iv; details: in vivo
[17] = AUC (0 to infinity) in Wistar rat at 5 mg/kg, iv by HPLC analysis; assay type: ADME, organism-based; parameters: dose 5 mg/kg, route iv; details: in vivo
[18] = Oral bioavailability in Wistar rat at 50 mg/kg, […] by HPLC analysis; assay type: ADME, organism-based; details: in vivo
[19] = system: Echinococcus granulosus; experiment: Parasiticidal activity against Echinococcus granulosus protoscolices assessed as lethal effect at 0.5 to 5 uM by eosin exclusion test; assay type: functional, organism-based; details: dose 0.5-5 µM, TDE = time-dependent effect
[20] = system: Echinococcus granulosus; experiment: Potency index, ratio of Harmine LC50 to test compound LC50 for Parasiticidal activity against Echinococcus granulosus protoscolices; assay type: functional
[21] = system: Echinococcus granulosus; experiment: Parasiticidal activity against Echinococcus granulosus protoscolices assessed as change in ultrastructure at 5 uM incubated for 4 days by scanning electron microscopy; assay type: functional, organism-based; details: time 4.0 day
[22] = system: Echinococcus granulosus; experiment: Parasiticidal activity against Echinococcus granulosus protoscolices assessed as appearance of whole body vacuolation at 5 uM incubated for 4 days by H and E based staining assay; assay type: functional, organism-based; details: time 4.0 day
[23] = system: Echinococcus granulosus; experiment: Parasiticidal activity against Echinococcus granulosus protoscolices assessed as appearance of dissolved and disappeared matrix at 5 uM incubated for 4 days by H and E staining based assay; assay type: functional, organism-based; details: time 4.0 day
[24] = system: Echinococcus granulosus; experiment: Parasiticidal activity against Echinococcus granulosus protoscolices assessed as appearance of disintegrated marginal structure at 5 uM incubated for 4 days by H and E staining based assay; assay type: functional, organism-based; details: time 4.0 day
[25] = Half life in Wistar rat at 5 mg/kg, iv by HPLC analysis; assay type: ADME, organism-based; details: in vivo
[26] = Half life in Wistar rat at 50 mg/kg, ip by HPLC analysis; assay type: ADME, organism-based; details: in vivo
[27] = system: Echinococcus granulosus; experiment: Parasiticidal activity against Echinococcus granulosus microcyst infected in kunming mouse assessed as mean cyst weight at 50 mg/kg, ip administered for 14 days; assay type: functional; details: time 14 day
[28] = system: Echinococcus granulosus; experiment: Parasiticidal activity against Echinococcus granulosus microcyst infected in kunming mouse assessed as mean cyst weight at 50 mg/kg, ip administered for 28 days; assay type: functional; details: time 28 day
[29] = system: Echinococcus granulosus; experiment: Parasiticidal activity against Echinococcus granulosus microcyst infected in kunming mouse assessed as mean cyst weight at 25 mg/kg, ip administered for 14 days; assay type: functional; details: time 14 day
[30] = system: Echinococcus granulosus; experiment: Parasiticidal activity against Echinococcus granulosus microcyst infected in kunming mouse assessed as mean cyst weight at 25 mg/kg, ip administered for 28 days; assay type: functional; details: time 28 day
[31] = system: Echinococcus granulosus; experiment: Parasiticidal activity against Echinococcus granulosus microcyst infected in kunming mouse assessed as mean cyst weight at 12.5 mg/kg, ip administered for 14 days; assay type: functional; details: time 14 day
[32] = system: Echinococcus granulosus; experiment: Parasiticidal activity against Echinococcus granulosus microcyst infected in kunming mouse assessed as mean cyst weight at 12.5 mg/kg, ip administered for 28 days; assay type: functional; details: time 28 day
[33] = system: Echinococcus granulosus; experiment: Parasiticidal activity against Echinococcus granulosus microcyst infected in kunming mouse assessed as reduction in cyst weight at 50 mg/kg, ip administered for 14 days relative to control; assay type: functional; parameters: scale not given: the % may be the effect or the level left; details: time 14 day
[34] = system: Echinococcus granulosus; experiment: Parasiticidal activity against Echinococcus granulosus microcyst infected in kunming mouse assessed as reduction in cyst weight at 50 mg/kg, ip administered for 28 days relative to control; assay type: functional; parameters: scale not given: the % may be the effect or the level left; details: time 28 day
[35] = system: Echinococcus granulosus; experiment: Parasiticidal activity against Echinococcus granulosus microcyst infected in kunming mouse assessed as reduction in cyst weight at 25 mg/kg, ip administered for 14 days relative to control; assay type: functional; parameters: scale not given: the % may be the effect or the level left; details: time 14 day
[36] = system: Echinococcus granulosus; experiment: Parasiticidal activity against Echinococcus granulosus microcyst infected in kunming mouse assessed as reduction in cyst weight at 25 mg/kg, ip administered for 28 days relative to control; assay type: functional; parameters: scale not given: the % may be the effect or the level left; details: time 28 day
[37] = system: Echinococcus granulosus; experiment: Parasiticidal activity against Echinococcus granulosus microcyst infected in kunming mouse assessed as reduction in cyst weight at 12.5 mg/kg, ip administered for 14 days relative to control; assay type: functional; parameters: scale not given: the % may be the effect or the level left; details: time 14 day
[38] = system: Echinococcus granulosus; experiment: Parasiticidal activity against Echinococcus granulosus microcyst infected in kunming mouse assessed as reduction in cyst weight at 12.5 mg/kg, ip administered for 28 days relative to control; assay type: functional; parameters: scale not given: the % may be the effect or the level left; details: time 28 day
[39] = system: Echinococcus granulosus; experiment: Parasiticidal activity against intraperitoneal cystic Echinococcus granulosus infected in Kunming mouse assessed as appearance of vacuole-like structure at 50 mg/kg, ip administered for 28 days by TEM analysis; assay type: functional, organism-based; details: time 28.0 day
[40] = system: Echinococcus granulosus; experiment: Parasiticidal activity against intraperitoneal cystic Echinococcus granulosus infected in Kunming mouse assessed as cell structure destruction at 50 mg/kg, ip administered for 28 days by TEM analysis; assay type: functional, organism-based; details: time 28.0 day
[41] = system: Echinococcus granulosus; experiment: Parasiticidal activity against intraperitoneal cystic Echinococcus granulosus infected in Kunming mouse assessed as disappearance of nucleolus at 50 mg/kg, ip administered for 28 days by TEM analysis; assay type: functional, organism-based; details: time 28.0 day
[42] = Neurotoxicity in Kunming mouse assessed as loosely arranged pyramidal cells in brain at 50 mg/kg, ip administered for 28 days by H and E staining based assay; assay type: toxicity, organism-based; details: in vivo, 672 h, time 28 day
[43] = Neurotoxicity in Kunming mouse assessed as swollen pyramidal cells in brain at 50 mg/kg, ip administered for 28 days by H and E staining based assay; assay type: toxicity, organism-based; details: in vivo, 672 h, time 28 day
[44] = Neurotoxicity in Kunming mouse assessed as deformed pyramidal cells in brain at 50 mg/kg, ip administered for 28 days by H and E staining based assay; assay type: toxicity, organism-based; details: in vivo, 672 h, time 28 day
[45] = system: Echinococcus granulosus; experiment: Induction of autophagy in Echinococcus granulosus protoscolices assessed as decrease in p62 expression level at 5 uM measured after 4 days by Western blot analysis; assay type: functional, organism-based; details: time 4.0 day
[46] = system: Echinococcus granulosus; experiment: Induction of autophagy in Echinococcus granulosus protoscolices assessed as increase in ATG5 expression level at 5 uM measured after 4 days by Western blot analysis; assay type: functional, organism-based; details: time 4.0 day
[47] = system: Echinococcus granulosus; experiment: Induction of autophagy in Echinococcus granulosus protoscolices assessed as increase in Beclin1 expression level at 5 uM measured after 4 days by Western blot analysis; assay type: functional, organism-based; details: time 4.0 day
[48] = system: Echinococcus granulosus; experiment: Potency index, ratio of Albendazole LC50 to test compound LC50 for Parasiticidal activity against Echinococcus granulosus protoscolices; assay type: functional
[49] = Neurotoxicity in Kunming mouse assessed as effect on hippocampal structure at 50 mg/kg, ip administered for 28 days by TEM analysis; assay type: toxicity, organism-based; details: in vivo, 672 h, time 28 day
[50] = Neurotoxicity in Kunming mouse assessed as effect on hippocampal arrangement at 50 mg/kg, ip administered for 28 days by TEM analysis; assay type: toxicity, organism-based; details: in vivo, 672 h, time 28 day
[51] = Neurotoxicity in Kunming mouse assessed as effect on heterochromatin at 50 mg/kg, ip administered for 28 days by TEM analysis; assay type: toxicity, organism-based; details: in vivo, 672 h, time 28 day
[52] = Neurotoxicity in Kunming mouse assessed as organelles damage at 50 mg/kg, ip administered for 28 days by TEM analysis; assay type: toxicity, organism-based; details: in vivo, 672 h, time 28 day
[53] = Neurotoxicity in Kunming mouse assessed as nuclei damage at 50 mg/kg, ip administered for 28 days by TEM analysis; assay type: toxicity, organism-based; details: in vivo, 672 h, time 28 day

For Cc1nc(NC(=O)c2ccc(CN3CCC(N4CCCCC4)CC3)cc2)cc2c1[nH]c1ccccc12, the LC50 [1] was 2390 nM, the Activity [2] was greater than 90% and the Activity [3] was “Dose-Dependent Effect”. The Activity [4] was greater than 50%, the Activity [5] was “Active” and the Activity [6] was “Active”. The Activity [7] was “Active”, the Activity [8] was “Active” and the Activity [9] was “Active”. The Activity [10] was “Active”, the Activity [11] was “Active” and the Activity [12] was 59.4%. The Activity [13] was “Active”, the Activity [14] was “Active” and the Activity [15] was “Active”. It also gave a Cmax [16] of 1120 ng/mL, an AUC(0-inf) [17] of 1410 ng·h/mL and a bioavailability [18] of 15.5%. For the same compound, the Activity [19] was “Tde”, the RatioLC50 [20] was 84 and the Activity [21] was “Active”.

In the case of COc1ccc(-c2nc(NC(=O)c3ccc(CN4CCC(O)CC4)cc3)cc3c2[nH]c2ccccc23)cc1, the LC50 [1] is reported as 1610 nM, the Activity [2] is reported as greater than 90% and the Activity [3] is reported as “Dose-Dependent Effect”. For the same compound, the Activity [4] was greater than 50%, the Activity [5] was “Active” and the Activity [22] was “Active”. For the same compound, the Activity [23] was “Active”, the Activity [24] was “Active” and the Activity [10] was “Active”. The Activity [11] was “Active”, the Activity [12] was 67.5% and the Activity [13] was “Active”. For the same compound, the Activity [14] was “Active”, the Activity [15] was “Active” and the Cmax [16] was 3040 ng/mL. It also gave an AUC(0-inf) [17] of 3000 ng·h/mL, a half-life [25] of 3.11 h and a half-life [26] of 9.08 h. It also gave a bioavailability [18] of 42.4%, an Activity [27] of 13.7 mg and an Activity [28] of 12.6 mg. For the same compound, the Activity [29] was 18.1 mg, the Activity [30] was 15.2 mg and the Activity [31] was 20.9 mg. For the same compound, the Activity [32] was 17.8 mg, the Activity [33] was 73.35% and the Activity [34] was 76.87%. For the same compound, the Activity [35] was 64.79%, the Activity [36] was 72.05% and the Activity [37] was 59.41%. The Activity [38] was 51.12%, the Activity [39] was “Active” and the Activity [40] was “Active”. For the same compound, the Activity [41] was “Active”, the Activity [42] was “Non-Toxic” and the Activity [43] was “Non-Toxic”. The Activity [44] was “Non-Toxic”, the Activity [45] was “Active” and the Activity [46] was “Active”. For the same compound, the Activity [47] was “Active”, the Activity [19] was “Tde” and the RatioLC50 [48] was 95. For the same compound, the Activity [21] was “Active”, the Activity [49] was “Non-Toxic” and the Activity [50] was “Non-Toxic”. The Activity [51] was “Non-Toxic”, the Activity [52] was “Non-Toxic” and the Activity [53] was “Non-Toxic”.

Source: ChEMBL document CHEMBL5344429, “1,3-Substituted β-Carboline Derivatives as Potent Chemotherapy for the Treatment of Cystic Echinococcosis” (J Med Chem, 2023)
